The structures appear in SMILES notation.

The test system of assay [1] is tBHQ-induced calcium influx into Hek cells (SOCE). Description: Store-operated calcium entry (SOCE) by Fura-2 Ca2+ measurements in Hek cells. In kind it is cell-based, Human. Conditions: for Calcium response to SOCE-modulators (regulation of SOCE): FIG. 2A, HEK cells, stores depleted with 50 μM tBHQ, compound added with 2 mM Ca2+.
In assay [2] the test system is SOCE in myotubes from KI-STIM1I115F mice (STIM1 mutated protein). The experiment in a line: Pharmacological modulation of SOCE in myotubes from KI-STIM1 I115F mice. In kind it is cell-based, mouse. Conditions: FIG. 4. As to the method: Wild-type and KI-STIM1^I115F primary myoblast were obtained from the following muscles: gastrocnemius, tibialis anterior, quadriceps femoris, extensor digitorum longus, soleus, biceps brachii and diaphragm. Each muscle was placed in a 60 mm dish in phosphate-buffered saline (PBS), removed from the tendon and separated longitudinally and subsequently chopped into smaller pieces. The small fragments were incubated with Pronase® (Protease, Streptomyces griseus, Calbiochem®, 25 KU) for 1 hour at 37° C. in shaking and neutralized with Dulbecco's Modified Eagle's Medium (DMEM, Sigma-Aldrich, Italy), supplemented with 10% heat-inactivated FCS (Gibco, Italy), L-glutamine 50 mg/mL (Sigma-Aldrich, Italy), penicillin 10 U/mL and streptomycin […] (Sigma-Aldrich, Italy), and 1% chicken embryo extract (Sigma-Aldrich, Italy). Tissues were then chopped into smaller pieces passing through pipets of 10 and 5 mL and the supernatant obtained was filtered in 40 μm strainer and centrifuge at RT for 10 minutes at 1200 rpm. […]
Myotubes were generated from 4 animals in each condition. We also analysed whether SOCE in WT myotubes was modified during the lifespan of these animals. […]

Assay [3] has as its system SOCE in myotubes from mdx mice. The experiment in a line: Pharmacological modulation of SOCE in myotubes of DMD mouse model (mdx). In kind it is cell-based. Conditions: FIG. 6; for over-activation of SOCE in DMD mouse model (DMD mutated protein): myotubes from mdx mice. As for the experimental part:
Myotubes were generated from 4 animals in each condition. We analysed whether SOCE is increased in myotubes from mxd mice as compared to myotubes from WT mice. To do this, we employed a classical protocol for Ca^2+-entry, in which stores are depleted with tBHQ in a Ca^2+-free buffer and after 10 minutes cells are perfused in a Ca^2+-containing solution (2 mM).
Myotubes from 4 wild type (WT) and 4 mdx mice were loaded with 5 μM Fura-2 AM and placed in an extracellular solution containing 0 mM Ca^2+. Stores were depleted with 50 μM tBHQ and after 10 minutes cells are perfused in a Ca^2+-containing solution (2 mM) in presence or absence of the selected compound (3-(1-(3-methoxy-[1,1-biphenyl]-4-yl)-1H-1,2,3-triazol-4-yl)benzoic acid).

[4] abbreviates: Homo sapiens, HEK293, Hek cells.
[5] abbreviates: Homo sapiens, HEK293, Hek cells, 3 μM.

With `COc1ccc(OC)c(-c2ccc(-n3cc(-c4ccnc(C(=O)O)c4)nn3)cc2)c1` [Compound 25, 4-(1-(2′,5′-dimethoxy-[1,1′-biphenyl]-4-yl)-1H-1,2,3-triazol-4-yl)picolinic acid], in assay [1] (setting [4]), the inhibition at 10 µM came out at 79.9 ± 4.1%.

On to `COc1ccc(-c2ccc(-c3cn(-c4cccc(C(=O)O)c4)nn3)cc2)c(OC)c1` [Compound 37, 3-(4-(2′,4′-dimethoxy-[1,1′-biphenyl]-4-yl)-1H-1,2,3-triazol-1-yl)benzoic acid], for which the inhibition at 10 µM in assay [1] (setting [4]) came out at 77.1 ± 0.9%.

Consider `COc1cccc(-c2ccc(-c3cn(-c4cccc(C(=O)O)c4)nn3)cc2)c1OC` [Compound 42, 3-(4-(2′,3′-dimethoxy-[1,1′-biphenyl]-4-yl)-1H-1,2,3-triazol-1-yl)benzoic acid], for which, in assay [1] (setting [5]), the inhibition at 3 µM was determined as 93.2 ± 5.1%.

Take `COc1ccc(OC)c(-c2ccc(-n3cc(-c4cccc(C(=O)O)c4)nn3)cc2)c1` [Compound 24, 3-(1-(2′,5′-dimethoxy-[1,1′-biphenyl]-4-yl)-1H-1,2,3-triazol-4-yl)benzoic acid]: the inhibition at 3 µM in assay [1] (setting [5]) stood at 85.8 ± 6.5%.

For `COc1cccc(OC)c1-c1ccc(-c2cn(-c3cccc(C(=O)O)c3)nn2)cc1` [Compound 44, 3-(4-(2′,6′-dimethoxy-[1,1′-biphenyl]-4-yl)-1H-1,2,3-triazol-1-yl)benzoic acid], in assay [1] (Homo sapiens, HEK293, Hek cells, 3 μM, read-out: Residual activity of SOCE), the activity at 3 µM is 122.8 ± 0.89%.

On to `COc1ccc(OC)c(-c2ccc(-c3cn(-c4cccc(C(=O)O)c4)nn3)cc2)c1` [Compound 46, 3-(4-(2′,5′-dimethoxy-[1,1′-biphenyl]-4-yl)-1H-1,2,3-triazol-1-yl)benzoic acid], for which the inhibition at 3 µM in assay [1] (setting [5]) came to 78.7 ± 3.8%. In assay [1] (setting [4]), the inhibition at 10 µM came to 87.8 ± 2.9%.

For `COc1cccc(-c2ccc(-c3cn(-c4cccc(C(=O)O)c4)nn3)cc2)c1` [Compound 36, 3-(4-(3′-methoxy-[1,1′-biphenyl]-4-yl)-1H-1,2,3-triazol-1-yl)benzoic acid], in assay [1] (setting [4]), the inhibition at 10 µM is 87 ± 1.1%.

For `COc1cc(OC)cc(-c2ccc(-n3cc(-c4cccc(C(=O)O)c4)nn3)cc2)c1` [Compound 16, 3-(1-(3′,5′-dimethoxy-[1,1′-biphenyl]-4-yl)-1H-1,2,3-triazol-4-yl)benzoic acid], the inhibition at 10 µM in assay [1] (setting [4]) amounted to 77.4 ± 4.7%.

Consider `CSc1cccc(-c2ccc(-n3cc(-c4cccc(C(=O)O)c4)nn3)cc2)c1` [Compound 11, 3-(1-(3′-(methylthio)-[1,1′-biphenyl]-4-yl)-1H-1,2,3-triazol-4-yl)benzoic acid], for which the inhibition at 10 µM in assay [1] (setting [4]) was determined as 72.6 ± 13.6%.

In the case of `COc1ccc(OC)c(-c2ccc(-n3cc(-c4ccncc4F)nn3)cc2)c1` [Compound 26, 4-(1-(2′,5′-dimethoxy-[1,1′-biphenyl]-4-yl)-1H-1,2,3-triazol-4-yl)-3-fluoropyridine], the “Calcium response to SOCE-modulators (regulation of SOCE)” value (“Calcium response to SOCE-modulators” for short) in assay [1] is “no activity”.

`COc1ccccc1-c1ccc(-n2cc(-c3cccc(C(=O)O)c3)nn2)cc1` [Compound 12, 3-(1-(2′-methoxy-[1,1′-biphenyl]-4-yl)-1H-1,2,3-triazol-4-yl)benzoic acid]: the inhibition at 10 µM in assay [1] (setting [4]) is 47.2 ± 7.2%.

As to `O=C(O)c1cccc(-c2cn(-c3ccc(-c4ccc5c(c4)OCO5)cc3)nn2)c1` [Compound 17, 3-(1-(4-(benzo[d][1,3]dioxol-5-yl)phenyl)-1H-1,2,3-triazol-4-yl)benzoic acid], the inhibition at 10 µM in assay [1] (setting [4]) was found to be 37.3 ± 4.2%.

Regarding `COc1cccc(-c2ccc(-n3cc(-c4cccc(C(=O)O)c4)nn3)cc2)c1OC` [Compound 20, 3-(1-(2′,3′-dimethoxy-[1,1′-biphenyl]-4-yl)-1H-1,2,3-triazol-4-yl)benzoic acid], the “Calcium response to SOCE-modulators” value in assay [1] is “negatively regulate SOCE”.

Consider `COC(=O)c1cc(-n2cc(-c3ccc(-c4cc(OC)ccc4OC)cc3)nn2)ccn1` [Compound 47, methyl 4-(4-(2′,5′-dimethoxy-[1,1′-biphenyl]-4-yl)-1H-1,2,3-triazol-1-yl)picolinate], for which, in assay [1] (setting [4]), the inhibition at 10 µM was found to be 73.5 ± 1.4%.

As for `COc1ccccc1-c1ccc(-c2cn(-c3cccc(C(=O)O)c3)nn2)cc1` [Compound 35, 3-(4-(2′-methoxy-[1,1′-biphenyl]-4-yl)-1H-1,2,3-triazol-1-yl)benzoic acid], in assay [1] (setting [4]), the inhibition at 10 µM was 59.6 ± 5.43%.

As for `O=C(O)c1cccc(-c2cn(-c3ccc(-c4ccc5c(c4)OCCO5)cc3)nn2)c1` [Compound 18, 3-(1-(4-(2,3-dihydrobenzo[b][1,4]dioxin-6-yl)phenyl)-1H-1,2,3-triazol-4-yl)benzoic acid], the “Calcium response to SOCE-modulators” value in assay [1] is given as “negatively regulate SOCE”. Further, in assay [1] (setting [4]), the inhibition at 10 µM was 82.7 ± 4%. In addition, the “over-activation of STIM1 mutated protein” value in assay [2] is “able to revert the over-activation of STIM1 mutated proteins”. In assay [3], the “over-activation of SOCE in DMD mouse model (DMD mutated protein)” value is “able to revert the over-activation of SOCE in DMD mouse model”.

As for `COc1cc(OC)cc(-c2ccc(-c3cn(-c4cccc(C(=O)O)c4)nn3)cc2)c1` [Compound 38, 3-(4-(3′,5′-dimethoxy-[1,1′-biphenyl]-4-yl)-1H-1,2,3-triazol-1-yl)benzoic acid], the inhibition at 10 µM in assay [1] (setting [4]) is 86.2 ± 4.2%.

Consider `COc1ccc(-c2ccc(-n3cc(-c4cccc(C(=O)O)c4)nn3)cc2)c(OC)c1` [Compound 15, 3-(1-(2′,4′-dimethoxy-[1,1′-biphenyl]-4-yl)-1H-1,2,3-triazol-4-yl)benzoic acid], for which the inhibition at 10 µM in assay [1] (setting [4]) amounted to 68.1 ± 4.2%.

For the compound `COc1cccc(-c2ccc(-n3cc(-c4cccc(C(=O)O)c4)nn3)cc2)c1` [Compound 13, 3-(1-(3′-Methoxy-[1,1′-biphenyl]-4-yl)-1H-1,2,3-triazol-4-yl)benzoic acid], the “Calcium response to SOCE-modulators” value in assay [1] is on record as “negatively regulate SOCE”. Also, in assay [1] (setting [5]), the inhibition at 3 µM is 85 ± 9%. Also, in assay [2], the “over-activation of STIM1 mutated protein” value is “able to revert the over-activation of STIM1 mutated protein”. Further, the “SOCE in myotubes from mdx mice” value in assay [3] (10 μM) was “impairs SOCE”. Besides, in assay [3], the “over-activation of SOCE in DMD mouse model (DMD mutated protein)” value is “able to revert the over-activation of DMD mutated protein”.

A word on the inhibition: it is how much of the control response was suppressed.

Source of the values: US12655113B2, “Biphenyl compounds as SOCE modulators, compositions and uses thereof” (Università degli Studi del Piemonte Orientale “Amedeo …, priority 2020, dated 2026).
